According to US6936266B2, “Desquamation/epidermal renewal of the skin and/or combating skin aging” (L'Oreal, priority 1998, dated 2005):

Tested on: differentiated human keratinocytes
Experiment: in vitro screening of an active agent on desquamation (release of corneocytes, cellular detachment index by flow cytometry)
Type: cell-based
Conditions: for % of activity relative to the control (cellular detachment index, difference between T60 and T0): compounds at 5 × 10^−5M, 60 minutes after addition, control = identical culture in the absence of compound
Protocol: This test of in vitro screening of an active agent on desquamation was carried out on differentiated human keratinocytes. The principle of the test was based on the fact that desquamation induces the release of corneocytes. The desquamating power of the product tested will be proportionately greater the larger the number of corneocytes released.
The test procedure was as follows: starting with human skin biopsies, the keratinocytes obtained by separation of the epidermis were dissociated by enzymatic action with trypsin and were cultured at a concentration of 2×10^5 cells/ml. Growth and differentiation of the keratinocytes were obtained by culturing for 10 to 20 days in a specific medium. Next, after removing the culture medium, the activity of the test product was evaluated. To do this, two samples were taken at T0 and T60, i.e., just before adding the product and 60 minutes after this addition. The samples thus taken were analyzed with a flow cytometer in order to count the corneocyte population. The flow cytometer made it possible to distinguish the corneocyte and keratinocyte populations by treatment with acridine orange, which is specific for cellular DNA.
The cellular detachment index was determined by the difference between T60 and T0.
The test was carried out with cinnamic acid at a concentration of 5×10^−5M.
The results are given as a % of activity relative to the control consisting of an identical culture in the absence of compound.

Row | SMILES | activity on the cellular detachment (cinnamic acid at 5×10^−5M) | % of activity relative to the control (cellular detachment index, difference between T60 and T0) [%]
1 | O=C(O)C=Cc1ccccc1 [Cinnamic acid] | high | 59.2
2 | CCCCCCCC(=O)c1ccc(O)c(C(=O)O)c1 [Reference, 2-hydroxy-5-octanoylbenzoic acid, reference compound] | – | 96.6
